Assay results as given in ChEMBL document CHEMBL1201862, “PubChem BioAssay data set” (2004).
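Cells were grown in 96-well plates and exposed to each compound for 48 hours at five concentrations; endpoints were interpolated linearly between bracketing concentrations, or set to the highest concentration if not reached. GI50 is the concentration that inhibits growth by half.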 Activity calls are given as the source filed them. Cut-off read from the data, not from the text of the source: active = GI50 up to about 1.1 µM and inactive = higher.

Experiments:
Assay in all cases: growth of human tumour cells (NCI), 48 h
786-0 = system: 786-0
A498 = system: A498
ACHN = system: ACHN
DLD-1 = system: DLD-1
HCT-15 = system: HCT-15
IGROV-1 = system: IGROV-1
M14 = system: M14
MOLT-4 = system: MOLT-4
NCI-H460 = system: NCI-H460
NCI-H522 = system: NCI-H522
RXF 393 = system: RXF 393
SK-MEL-5 = system: SK-MEL-5
SNB-19 = system: SNB-19
UACC-257 = system: UACC-257
Malme-3M = system: Malme-3M
BT-549 = system: BT-549
Hs-578T = system: Hs-578T
MDA-MB-231 = system: MDA-MB-231
MDA-MB-435 = system: MDA-MB-435
T47D = system: T47D

Row | Compound | GI50 (786-0) | GI50 (A498) | GI50 (ACHN) | GI50 (DLD-1) | GI50 (HCT-15) [µM] | GI50 (IGROV-1) | GI50 (M14) | GI50 (MOLT-4) | GI50 (NCI-H460) | GI50 (NCI-H522) | GI50 (RXF 393) | GI50 (SK-MEL-5) | GI50 (SNB-19) | GI50 (UACC-257) | GI50 (Malme-3M) | GI50 (BT-549) | GI50 (Hs-578T) | GI50 (MDA-MB-231) | GI50 (MDA-MB-435) | GI50 (T47D)
1 | CC1(C)CCOC(Sc2ccccc2)C1 (centres undefined) | > 100 µM (inactive) | 67.3 µM (inactive) | 63.7 µM (inactive) | > 100 µM (inactive) | 50.6 | > 100 µM (inactive) | 53.2 µM (inactive) | 23.2 µM (inactive) | 84.9 µM (inactive) | 18.8 µM (inactive) | 32.1 µM (inactive) | 15 µM (inactive) | > 100 µM (inactive) | 35.2 µM (inactive) | – | – | – | – | – | –
2 | COc1ccc(CCC2c3cc(OC)c(OC)cc3CCN2C)cc1OC (centres undefined) | > 100 µM (inactive) | – | > 100 µM (inactive) | > 100 µM (inactive) | > 100 | > 100 µM (inactive) | > 100 µM (inactive) | > 100 µM (inactive) | > 100 µM (inactive) | > 100 µM (inactive) | > 100 µM (inactive) | > 100 µM (inactive) | > 100 µM (inactive) | > 100 µM (inactive) | > 100 µM (inactive) | – | – | – | – | –
3 | CC(/C(=N\Nc1ccccc1)c1ccc(O)cc1)C1C(=O)Oc2ccccc21 (centres undefined) | > 100 µM (inactive) | > 100 µM (inactive) | > 100 µM (inactive) | > 100 µM (inactive) | > 100 | > 100 µM (inactive) | > 100 µM (inactive) | > 100 µM (inactive) | > 100 µM (inactive) | – | > 100 µM (inactive) | > 100 µM (inactive) | > 100 µM (inactive) | > 100 µM (inactive) | > 100 µM (inactive) | – | – | – | – | –
4 | Cc1ccc(NC(=O)CC2SC(=N)NC2=O)cc1C (centres undefined) | > 100 µM (inactive) | – | > 100 µM (inactive) | > 100 µM (inactive) | > 100 | > 100 µM (inactive) | > 100 µM (inactive) | > 100 µM (inactive) | > 100 µM (inactive) | > 100 µM (inactive) | – | – | > 100 µM (inactive) | > 100 µM (inactive) | > 100 µM (inactive) | – | – | – | – | –
5 | COC(CN1C(=O)c2cccc3cccc(c23)C1=O)OC | > 100 µM (inactive) | 82.8 µM (inactive) | 41.5 µM (inactive) | > 100 µM (inactive) | 53.6 | > 100 µM (inactive) | > 100 µM (inactive) | 32.3 µM (inactive) | 41.3 µM (inactive) | – | > 100 µM (inactive) | 70.1 µM (inactive) | > 100 µM (inactive) | 78.2 µM (inactive) | > 100 µM (inactive) | – | – | – | – | –
6 | O=C(Nc1ccc(Cl)c(Cl)c1)N1N=C2c3ccccc3CCC2C1c1ccc(Cl)cc1 (centres undefined) | > 100 µM (inactive) | > 100 µM (inactive) | > 100 µM (inactive) | – | > 100 | 3.01 µM (inactive) | > 100 µM (inactive) | > 100 µM (inactive) | > 100 µM (inactive) | > 100 µM (inactive) | > 100 µM (inactive) | > 100 µM (inactive) | > 100 µM (inactive) | > 100 µM (inactive) | > 100 µM (inactive) | > 100 µM (inactive) | > 100 µM (inactive) | > 100 µM (inactive) | > 100 µM (inactive) | > 100 µM (inactive)
7 | COc1cccc(/C=C/c2cc(OC)c(OC)c(OC)c2)c1 | 30.5 µM (inactive) | 57 µM (inactive) | 87.5 µM (inactive) | 18.3 µM (inactive) | 53 | 47.2 µM (inactive) | 23.8 µM (inactive) | 36.6 µM (inactive) | 43.4 µM (inactive) | > 100 µM (inactive) | – | 24.8 µM (inactive) | 42.9 µM (inactive) | 38.3 µM (inactive) | 34.8 µM (inactive) | – | – | – | – | –
8 | COC(=O)C[C@H](CCSC)NC(=O)C[C@H](CCSC)NC(=O)C[C@H](CCSC)NC(=O)OC(C)(C)C | 33.6 µM (inactive) | 21 µM (inactive) | 36.9 µM (inactive) | – | > 100 | 56.2 µM (inactive) | 57.5 µM (inactive) | > 100 µM (inactive) | 69.8 µM (inactive) | 35.2 µM (inactive) | 16.1 µM (inactive) | 56.4 µM (inactive) | 20.7 µM (inactive) | 68.5 µM (inactive) | > 100 µM (inactive) | 69.3 µM (inactive) | 30.3 µM (inactive) | 38.5 µM (inactive) | 39.5 µM (inactive) | 63.1 µM (inactive)
9 | O=C(O)CSc1nnc(COc2ccccc2)n1-c1ccccc1 | > 100 µM (inactive) | > 100 µM (inactive) | > 100 µM (inactive) | > 100 µM (inactive) | > 100 | > 100 µM (inactive) | > 100 µM (inactive) | > 100 µM (inactive) | > 100 µM (inactive) | > 100 µM (inactive) | – | > 100 µM (inactive) | – | > 100 µM (inactive) | > 100 µM (inactive) | – | – | – | – | –
10 | COC(=O)CC1C[C@H](C#N)N(C(=O)c2ccccc2)C[C@@H]1CC[N+](=O)[O-] (some centres undefined) | > 100 µM (inactive) | > 100 µM (inactive) | > 100 µM (inactive) | > 100 µM (inactive) | > 100 | > 100 µM (inactive) | > 100 µM (inactive) | > 100 µM (inactive) | > 100 µM (inactive) | – | > 100 µM (inactive) | > 100 µM (inactive) | > 100 µM (inactive) | > 100 µM (inactive) | > 100 µM (inactive) | – | – | – | – | –
11 | O=C(Nc1sccc1S(=O)(=O)c1ccc(Cl)cc1)c1ccc(Cl)cc1Cl | > 100 µM (inactive) | > 100 µM (inactive) | > 100 µM (inactive) | – | > 100 | > 100 µM (inactive) | > 100 µM (inactive) | > 85.9 µM (inactive) | > 95.7 µM (inactive) | 34.1 µM (inactive) | > 100 µM (inactive) | 47 µM (inactive) | > 100 µM (inactive) | 23.4 µM (inactive) | > 100 µM (inactive) | > 100 µM (inactive) | > 100 µM (inactive) | > 100 µM (inactive) | 14.5 µM (inactive) | 19.1 µM (inactive)
12 | CCOC(=O)c1c(CN2CCCC2)n(-c2ccccc2)c2cc(Br)c(O)cc12 | 16.7 µM (inactive) | 16.4 µM (inactive) | 17.8 µM (inactive) | – | 20.8 | 16.8 µM (inactive) | 15.5 µM (inactive) | 17 µM (inactive) | 17 µM (inactive) | 17.1 µM (inactive) | 12.4 µM (inactive) | 13.4 µM (inactive) | 16.5 µM (inactive) | 17.5 µM (inactive) | 19.5 µM (inactive) | 36.1 µM (inactive) | 26.4 µM (inactive) | 17.8 µM (inactive) | 18 µM (inactive) | 20.7 µM (inactive)
13 | COc1cccc(/C=C\c2ccnc3ccccc23)c1 | > 10 µM (inactive) | > 10 µM (inactive) | > 10 µM (inactive) | – | > 10 | > 10 µM (inactive) | > 10 µM (inactive) | > 10 µM (inactive) | > 10 µM (inactive) | > 10 µM (inactive) | > 10 µM (inactive) | > 10 µM (inactive) | > 10 µM (inactive) | > 10 µM (inactive) | > 10 µM (inactive) | > 10 µM (inactive) | > 10 µM (inactive) | > 10 µM (inactive) | > 10 µM (inactive) | > 10 µM (inactive)
